# “Also recorded” adds a separate entry of the source. Marks after values point to notes of the source that are not given here.
# Legend:
# [1] = system: SUR-1−/− mice; assay: Fasting blood glucose during continuous subcutaneous exendin-(9-39) infusion; format: in vivo, mouse; details: for Fasting blood glucose levels: 150 pmol/kg/min s.c. pump, overnight fast
# From the text: (§1) SUR-1^−/− mice were kindly provided by Dr. Mark A. Magnuson. The generation and genotyping of SUR-1^−/− mice were previously described (8). Mice are maintained in a C57B1/6 genetic background. Twelve to eighteen week SUR-1^−/− and wild-type littermate control mice were used in all experiments. Mice were maintained on a 12:12-h light-dark cycle and were fed a standard rodent chow diet. All procedures were approved and carried out according to the University of Pennsylvania Institutional Animal Care and Use Committee Guidelines. Alzet mini-osmotic pumps (model 2002; Alza, Palo Alto, Calif.) were implanted subcutaneously to deliver exendin-(9-39) (Bachem Bioscience, King of Prussia, Pa.) at a rate of 150 pmol/kg/min or vehicle (0.9% NaCl/1% BSA) for 2 weeks. For determination of fasting blood glucose levels mice were fasted for 12-16 hours. Oral glucose tolerance testing was carried after a 12-16 hour fast by administering 2 g/kg of dextrose by oral gavage (feeding needles; Popper and Sons, Inc., Hyde Park, N.Y.). For insulin tolerance testing mice received 0.5 units/kg of insulin intraperitoneally after a 4 hour fast. Blood glucose levels were measured using a hand-held glucose meter (FreeStyle; TheraSense, Alameda, Calif.). Insulin and glucagon were measured by ELISA (Mouse Endocrine Immunoassay Panel; Linco Research, Inc., St. Charles, Mo.). Twelve-18 week old male SUR-1^−/− and wildtype littermates underwent a baseline evaluation including fasting blood glucose measurements and oral glucose tolerance testing, followed by randomization to treatment with exendin-(9-39) (150 pmol/kg/min) or vehicle (0.9% NaCl, 1% BSA). Fasting blood glucose levels were determined after an overnight fast on days 3 and 7 of the infusion. In addition, oral glucose tolerance and insulin sensitivity were evaluated during treatment. […] After an oral load of glucose, SUR-1^−/− mice were glucose intolerant when compared to littermate wild-type controls (p<0.0001, repeated measures ANOVA) (FIG. 1C). The SUR-1^−/− mice have a significant impairment of insulin secretion in response to an oral glucose load (wildtype vs. SUR-1^−/−: p=0.02, repeated measures ANOVA) (FIG. 1D). Exendin-(9-39) was administered via an Azlet miniosmotic subcutaneous pump at a continuous infusion rate of 150 pmol/kg/min for 2 weeks. This dose was chosen based on results of a pilot study evaluating different doses previously shown to have an effect in normal humans and mice.
# [2] = system: wild-type littermates; assay: as above; format: in vivo, mouse; details: wild-type mice, 150 pmol/kg/min
# From the text: as §1
# [3] = system: SUR-1−/− mice; assay: Fasting hormonal profile (insulin, glucagon, insulin/glucose ratio); format: in vivo, mouse
# Procedure: (§2) Alzet mini-osmotic pumps (model 2002; Alza, Palo Alto, Calif.) were implanted subcutaneously to deliver exendin-(9-39) (Bachem Bioscience, King of Prussia, Pa.) at a rate of 150 pmol/kg/min or vehicle (0.9% NaCl/1% BSA) for 2 weeks. For determination of fasting blood glucose levels mice were fasted for 12-16 hours. Oral glucose tolerance testing was carried after a 12-16 hour fast by administering 2 g/kg of dextrose by oral gavage (feeding needles; Popper and Sons, Inc., Hyde Park, N.Y.). For insulin tolerance testing mice received 0.5 units/kg of insulin intraperitoneally after a 4 hour fast. Blood glucose levels were measured using a hand-held glucose meter (FreeStyle; TheraSense, Alameda, Calif.). Insulin and glucagon were measured by ELISA (Mouse Endocrine Immunoassay Panel; Linco Research, Inc., St. Charles, Mo.).
# [4] = system: SUR-1−/− mice; assay: Oral glucose tolerance test; format: in vivo, mouse
# Procedure: as §1, with “Alzet” for “SUR-1^−/− mice were kindly provided by Dr. Mark A. Magnuson. The generation and genotyping of SUR-1^−/− mice were previously described (8). Mice are maintained in a C57B1/6 genetic background. Twelve to eighteen week SUR-1^−/− and wild-type littermate control mice were used in all experiments. Mice were maintained on a 12:12-h light-dark cycle and were fed a standard rodent chow diet. All procedures were approved and carried out according to the University of Pennsylvania Institutional Animal Care and Use Committee Guidelines. Alzet”
# [5] = system: wild-type littermates; assay: Oral glucose tolerance test; format: in vivo, mouse; details: oral glucose 2 g/kg, during treatment (FIG. 4A)
# Procedure: as §1, with “Alzet” for “SUR-1^−/− mice were kindly provided by Dr. Mark A. Magnuson. The generation and genotyping of SUR-1^−/− mice were previously described (8). Mice are maintained in a C57B1/6 genetic background. Twelve to eighteen week SUR-1^−/− and wild-type littermate control mice were used in all experiments. Mice were maintained on a 12:12-h light-dark cycle and were fed a standard rodent chow diet. All procedures were approved and carried out according to the University of Pennsylvania Institutional Animal Care and Use Committee Guidelines. Alzet”
# [6] = system: SUR-1−/− and wild-type mice; assay: Insulin tolerance test (insulin sensitivity); format: in vivo, mouse; details: insulin 0.5 units/kg i.p. after 4 hour fast, any of the treatment groups (FIG. 4B)
# Procedure: as §2, with “Mo.). Twelve-18 week old male SUR-1^−/− and wildtype littermates underwent a baseline evaluation including fasting blood glucose measurements and oral glucose tolerance testing, followed by randomization to treatment with exendin-(9-39) (150 pmol/kg/min) or vehicle (0.9% NaCl, 1% BSA). Fasting blood glucose levels were determined after an overnight fast on days 3 and 7 of the infusion. In addition, oral glucose tolerance and insulin sensitivity were evaluated during treatment. […]” for “Mo.).”
# [7] = system: SUR-1−/− islets; assay: Islet perifusion, fuel-induced insulin secretion; format: cell-based, mouse; details: perifused SUR-1−/− islets
# Procedure: Islets were isolated by collagenase digestion and cultured for 3 days in RPMI 1640 medium containing 10 mM glucose. The culture medium was supplemented with 10% fetal bovine serum, 2 mM glutamine, 100 units/mL penicillin, and 50 μg/mL streptomycin. Islets were incubated at 37° C. in a 5% CO2, 95% air-humidified incubator. Batches of 100 cultured mouse islets were loaded onto a nylon filter in a chamber and perifused with Krebs-Ringer bicarbonate buffer (115 mM NaCl, 24 mM NaHCO3, 5 mM KCl, 1 mM MgCl2, 2.5 mM CaCl2, 10 mM HEPES, pH 7.4) with 0.25% bovine serum albumin at a flow rate of 2 mL/min. Perifusate solutions were gassed with 95% O2, 5% CO2 and maintained at 37° C. Islets were stimulated with a ramp of amino acids. The physiologic mixture of 19 amino acids when used at a maximum concentration of 12 mM (about 3 times physiological concentration) had the following composition (in mM): glutamine 2, alanine 1.25, arginine 0.53, aspartate 0.11, citrulline 0.27, glutamate 0.35, glycine 0.85, histidine 0.22, isoleucine 0.27, leucine 0.46, lysine 1.06, methionine 0.14, ornithine 0.20, phenylalanine 0.23, proline 1, serine 1.62, threonine 0.77, tryptophan 0.21, valine 0.57. Samples were collected every minute for insulin assays. Insulin was measured by radioimmunoassay (Linco Research Inc., St. Charles, Mo.).
# [8] = system: SUR-1−/− islets; assay: cAMP content determination in static incubations of isolated islets; format: cell-based, mouse
# Procedure: Islets were isolated as above, hand-picked and cultured for three days. Cultured islets were preincubated in glucose free Krebs-Ringer bicarbonate buffer for 60 min, 100 nM exendin-(9-39) was added 30 min into the preincubation period. Then, islets were exposed to different treatments for an additional 30 min in the presence of 0.1 mM isobutyl-methylzanthine (IBMX). After incubation, islets were washed 2 times by cold glucose-free Hank's buffer. cAMP was measured in islet lysates by ELISA (GE/Amersham Biosciences, Piscataway, N.J.).
# [9] = system: SUR-1−/− islets; assay: Insulin secretion in static incubations of isolated islets; format: cell-based, mouse
# [10] = system: SUR-1−/− islets; assay: Cytosolic free Ca2+ measurement (Fura-2); format: cell-based, mouse; details: for Amino acid-stimulated rise in intracellular calcium: SUR-1−/− islets, amino acids 4 mM (FIG. 6)
# Procedure: Mouse islets were isolated and cultured on poly-[…] coated glass coverslips under the same conditions as described above. The perifusion procedure and cytosolic-free Ca2+ ([Ca2+]i) measurement were described previously (24). In brief, the coverslip with attached islets was incubated with 15 μM Fura-2 acetoxymethylester (Molecular Probes, Eugene, Oreg.) in Krebs-Ringer bicarbonate buffer with 5 mM glucose for 35 min at 37° C. Islets were then perifused with Krebs-Ringer bicarbonate buffer with 0.25% bovine serum albumin at 37° C. at a flow rate of 2mL/min, while various agents were applied. [Ca2+]i was measured with a dual wavelength fluorescence microscope as previously described.
# [11] = during treatment, SUR-1−/− and wild-type (FIG. 3A)
substance,measurement,setting,value
Exendin (9-39) [Exendin-(9-39)],Fasting blood glucose levels,"[1]; day 3, mean±SEM",82.2 ± 6.3 mg/dL
same,Fasting blood glucose levels,"[1]; day 7, mean±SEM",82 ± 4.7 mg/dL
same,Effect on fasting blood glucose levels (in words),"[1]; 12-16 hour fast, day 7 (FIG. 2)",normalized
same,Fasting blood glucose levels vs. vehicle-treated wild type controls,[2],not different
same,Insulin/glucose ratio,"[3]; SUR-1−/− mice, WT vs. SUR-1−/− Ex-(9-39) p=0.32 (FIG. 3B)",normalized
same,Fasting glucagon levels among treatment groups,[3]; [11],not different
same,Fasting insulin levels among treatment groups,[3]; [11],not different
same,Glucose tolerance,"[4]; oral glucose 2 g/kg, during treatment (FIG. 4A)",did not significantly impair; also recorded: did not influence
same,Return to baseline blood glucose levels,"[4]; oral glucose tolerance test, 120 minute time point",minor delay
same,Glucose tolerance,[5],no effect
same,Peripheral insulin sensitivity,[6],did not impact; also recorded: did not influence
same,"Insulin response to KCl, presence vs. absence of exendin-(9-39)",[7]; 100 nM exendin-(9-39),similar
same,Insulin release in response to ramp of amino acid mixture,"[7]; amino acids 0-12 mM, 100 nM exendin-(9-39) (FIG. 5)",blocked
same,cAMP Content,[8]; 100 nM exendin-(9-39) + 4 mM AAM (amino acid-stimulated),52.5 ± 9.4^c pmol/100 islets
same,cAMP Content,"[8]; 100 nM exendin-(9-39) + 4 mM AAM (amino acid-stimulated), listed as exendin-(9-39)",20.9±4.4 pmol/100 islets
same,cAMP Content,"[8]; basal, 100 nM exendin-(9-39), no exogenous GLP-1, glucose free KRBB, baseline 40.1 ± 4.2",20.5 ± 2.3^a pmol/100 islets
same,cAMP Content,"[8]; basal, 100 nM exendin-(9-39), no exogenous GLP-1, glucose free KRBB, baseline 40.1 ± 4.2, listed as exendin-(9-39)",20.5±2.3 pmol/100 islets
same,Insulin Secretion,"[9]; 100 nM exendin-(9-39) + 4 mM AAM (amino acid-stimulated), AAM alone 389 ± 17",219 ± 14 ng/100 islets/30 min
same,Insulin Secretion,"[9]; 100 nM exendin-(9-39) + 4 mM AAM (amino acid-stimulated), AAM alone 389 ± 17, listed as exendin-(9-39)",219±14 ng/100 islets/30 min
same,Insulin Secretion,"[9]; basal, 100 nM exendin-(9-39), baseline 221 ± 22",126 ± 12^a ng/100 islets/30 min
same,Insulin Secretion,"[9]; basal, 100 nM exendin-(9-39), baseline 221 ± 22, listed as exendin-(9-39)",126±12 ng/100 islets/30 min
same,Basal intracellular calcium,[10]; SUR-1−/− islets (FIG. 6),did not affect
same,Amino acid-stimulated rise in intracellular calcium,[10],no effect
same,Amino acid-stimulated rise in intracellular calcium,[10]; listed as exendin-(9-39),did not impact

# From US9821031B2, “Methods and compositions for treating hypoglycemic disorders” (priority 2007, dated 2017)
